Data from patent US20190040063A1, “TRICYCLIC COMPOUND FOR BROMODOMAIN-CONTAINING PROTEIN INHIBITOR AND PREPARATION PHARMACEUTICAL COMPOSITION, AND APPLICATION THEREOF” (CHIA TAI TIANQING PHARMACEUTICAL GROUP CO., LTD., priority 2016, published 2019).

Legend:
BRD4 = target: T1, BRD4 (Homo sapiens, UniProt O60885); test: In vitro enzymatic activity assay: inhibition of BRD4 enzyme binding reaction by HTRF; details: GST-BRD4 (51-462) 1 nM, acetylated short peptide 100 nM, 23° C., 60 min
T1 construct: GST-BRD4 (51-462) (purchased from Cisbio); purchased Cisbio
Procedure: IC50 values of the compounds of the present application in inhibiting BRD4 enzyme binding reaction were determined by homogeneous time resolved fluorescence (HTRF). A compound was serially diluted 5-fold with 100% DMSO starting from 1 mM (totally 7 concentrations). 2 μL of the compound at each concentration was added into 48 μL of a reaction buffer solution (20 mM HEPES pH7.5, 150 mM NaCl, 5 mM DTT, 0.005% Tween 20 and 100 μg/ml BSA) to be diluted and fully mixed. Then 2.5 μL of the resulting mixture was added to a 384-well plate (OptiPlate-384, purchased from PerkinElmer), 5 μL of GST-BRD4 (51-462) (purchased from Cisbio) (final concentration: 1 nM) was added, and the resulting mixture was centrifuged, and fully mixed. Then 2.5 μL of a short peptide Biotin-AHA-SGRGK(Ac)GGK-(Ac)GLGK(Ac)GGAK(Ac)RHRKV) (synthesized by GL Biochem (Shanghai) Ltd) (final concentration: 100 nM) was added to initiate the reaction (total reaction volume: 10 μL). The 384-well plate was placed in an incubator at 23° C. to react for 60 min, and then 5 μL of Eu3+ cryptate-labeled anti-GST antibody (purchased from Cisbio) and 5 μL of Streptavidin-XL-665 (purchased from Cisbio) were added to terminate the reaction. After an additional 1 hour incubation in the incubator, the fluorescence values (excited at 320 nm, emitted light at 665 nm and 620 nm being detected, and the ratio of the two being the enzyme binding signal) were read on Envision (purchased from PerkinElmer). The binding strength of each compound to the BRD4 protein was determined respectively at 7 concentrations, and the data were calculated with GraphPad Prism software to obtain the IC50 value of the compound.

MV4-11 cells = test: Cell proliferation activity assay (Cell-Titer Blue); type: cell-based; details: Homo sapiens, inhibiting cell proliferation, 72 h co-incubation
Procedure: Human acute […] leukemia cell line MV4-11 cells were cultured in PRIM1640 medium plus 10% fetal bovine serum (FBS, purchased from Biological Industries, BI) and 1% penicillin/streptomycin double antibody solution (P/S, purchased from Life Technology) at 37° C. with 5% CO2. On the day before the compound was tested, the MV4-11 cells were spread in a 96-well plate (purchased from Corning) at a concentration of 8,000 cells/195 μL/well. On the next day, the compound was serially diluted 3-fold with 100% DMSO starting from 10 mM (totally 10 concentrations). 2 μL of the resulting mixture at each concentration was diluted with 48 μL of PRIM1640 medium (purchased from Life Technology). 5 μL of the diluted compound at each concentration was added to the spread cell suspension, and the compound and cells were co-incubated in a cell incubator for 72 h (3 days), and then incubated for additional 4 h after adding 35 μL of Cell-Titer Blue reagent (purchased from Promega). Then the fluorescence values (excited at 560 nm, detected at 590 nm) were read on Flexstation III (purchased from Molecular Devices), and the data were calculated with GraphPad Prism software to obtain the IC50 value of the compound in inhibiting cell proliferation.

SMILES: COc1ccc2c(n1)c1ncc(-c3c(C)noc3C)cc1n2C(c1ccccc1)C1CCOCC1 (stereo not drawn) [Compound 1, 4-{8-Methoxy-5-[phenyl(tetrahydro-2H-pyran-4-yl)methyl]-5H-pyrrolo[3,2-b:4,5-b′]dipyridin-3-yl}-3,5-dimethylisoxazole]
- IC50 (BRD4): < 2 nM

SMILES: CCOC(=O)c1cc2c(cn1)c1ncc(-c3c(C)noc3C)cc1n2C(c1ccccc1)C1CCOCC1 (stereo not drawn) [Compound 3, Ethyl 3-(3,5-dimethylisoxazol-4-yl)-5-[phenyl(tetrahydro-2H-pyran-4-yl)methyl]-5H-pyrrolo[2,3-b:4,5-c′]dipyridine-7-carboxylate]
- IC50 (BRD4): < 2 nM

SMILES: Cc1noc(C)c1-c1cnc2c3cnc(C(C)(C)O)cc3n(C(c3ccccc3)C3CCOCC3)c2c1 (stereo not drawn) [Compound 4, 2-{3-(3,5-Dimethylisoxazol-4-yl)-5-[phenyl(tetrahydro-2H-pyran-4-yl)methyl]-5H-pyrrolo[3,2-b:4,5-c′]dipyridin-7-yl}propan-2-ol]
- IC50 (MV4-11 cells): < 10 nM
- IC50 (BRD4): < 2 nM

SMILES: Cc1noc(C)c1-c1cnc2c3ccc(C(C)(C)O)nc3n(C(c3ccccc3)C3CCOCC3)c2c1 (stereo not drawn) [Compound 6, 2-{3-(3,5-Dimethylisoxazol-4-yl)-5-[phenyl(tetrahydro-2H-pyran-4-yl)methyl]-5H-pyrrolo[2,3-b:4,5-b′]dipyridin-7-yl}propan-2-ol]
- IC50 (BRD4): < 2 nM

SMILES: CCOC(=O)c1cc2c(cn1)c1ncc(-c3c(C)noc3C)cc1n2[C@H](c1ccccc1)C1CCOCC1 [Compound 9, Ethyl (S)-3-(3,5-dimethylisoxazol-4-yl)-5-[phenyl(tetrahydro-2H-pyran-4-yl)methyl]-5H-pyrrolo[3,2-b:4,5-c′]dipyridine-7-carboxylate]
- IC50 (BRD4): < 2 nM

SMILES: Cc1noc(C)c1-c1cnc2c3cnc(C(C)(C)O)cc3n([C@H](c3ccccc3)C3CCOCC3)c2c1 [Compound 10, (S)-2-{3-(3,5-dimethylisoxazol-4-yl)-5-[phenyl(tetrahydro-2H-pyran-4-yl)methyl]-5H-pyrrolo[3,2-b:4,5-c′]dipyridin-7-yl}propan-2-ol]
- IC50 (MV4-11 cells): < 10 nM
- IC50 (BRD4): < 2 nM

SMILES: Cc1noc(C)c1-c1cnc2c3cnc(C(C)(C)O)cc3n([C@@H](c3ccccc3)C3CCOCC3)c2c1 [Compound 12, (R)-2-{3-(3,5-dimethylisoxazol-4-yl)-5-[phenyl(tetrahydro-2H-pyran-4-yl)methyl]-5H-pyrrolo[3,2-b:4,5-c′]dipyridin-7-yl}propan-2-ol]
- IC50 (MV4-11 cells): < 10 nM
- IC50 (BRD4): < 2 nM

SMILES: Cc1noc(C)c1-c1cnc2c3ccc(C(C)(C)O)nc3n([C@H](c3ccccc3)C3CCOCC3)c2c1 [Compound 16, (S)-2-{3-(3,5-dimethylisoxazol-4-yl)-5-[phenyl(tetrahydro-2H-pyran-4-yl)methyl]-5H-pyrrolo[2,3-b:4,5-b′]dipyridin-7-yl}propan-2-ol]
- IC50 (MV4-11 cells): < 10 nM
- IC50 (BRD4): < 2 nM

SMILES: Cc1nnn(C)c1-c1cnc2c3ccc(C(C)(C)O)nc3n(C(c3ccccc3)C3CCOCC3)c2c1 (stereo not drawn) [Compound 20, 2-(3-(1,4-Dimethyl-1H-1,2,3-triazol-5-yl)-5-[phenyl(tetrahydro-2H-pyran-4-yl)methyl]-5H-pyrrolo[2,3-b:4,5-b′]dipyridin-7-yl)propan-2-ol]
- IC50 (BRD4): < 2 nM

SMILES: Cc1noc(C)c1-c1cnc2c3ncc(C(C)(C)O)cc3n(C(c3ccccc3)C3CCOCC3)c2c1 (stereo not drawn) [Compound 22, 2-(7-(3,5-Dimethylisoxazol-4-yl)-5-(phenyl(tetrahydro-2H-pyran-4-yl)methyl]-5H-pyrrolo[3,2-b:4,5-b′]dipyridin-3-yl)propan-2-ol]
- IC50 (MV4-11 cells): < 10 nM
- IC50 (BRD4): < 2 nM

SMILES: Cc1noc(C)c1-c1cc(F)c2c3ncc(C(C)(C)O)cc3n(C(c3ccccc3)C3CCOCC3)c2c1 (stereo not drawn) [Compound 24, 2-{7-(3,5-dimethylisoxazol-4-yl)-9-fluoro-5-[phenyl(tetrahydro-2H-pyran-4-yl)methyl]-5H-pyridino[3,2-b]indol-3-yl}propan-2-ol]
- IC50 (MV4-11 cells): < 10 nM
- IC50 (BRD4): < 2 nM

SMILES: Cc1noc(C)c1-c1cnc2c3ccncc3n(C(c3ccccc3)C3CCOCC3)c2c1 (stereo not drawn) [Compound 37, 3,5-Dimethyl-4-{5-[phenyl(tetrahydro-2H-pyran-4-yl)methyl]-5H-pyrrolo[3,2-b:5,4-c′]dipyridin-3-yl}isoxazole]
- IC50 (BRD4): < 2 nM

SMILES: CCCC(CCC)n1c2cc(C(C)(C)O)ncc2c2ncc(-c3c(C)noc3C)cc21 [Compound 39, 2-[3-(3,5-Dimethylisoxazol-4-yl)-5-(heptan-4-yl)-5H-pyrrolo[3,2-b:4,5-c′]dipyridin-7-yl]propan-2-ol]
- IC50 (BRD4): < 2 nM

SMILES: Cc1noc(C)c1-c1cnc2c3cnc(C(C)(C)O)cc3n(C(c3ccccc3)c3cscn3)c2c1 (stereo not drawn) [Compound 41, 2-{3-(3,5-Dimethylisoxazol-4-yl)-5-[phenyl(thiazol-4-yl)methyl]-5H-pyrrolo[3,2-b:4,5-c′]dipyridin-7-yl}propan-2-ol]
- IC50 (BRD4): < 2 nM

SMILES: Cc1noc(C)c1-c1cnc2c3ccc(O)nc3n(C(c3ccccc3)C3CCOCC3)c2c1 (stereo not drawn) [Compound 43, 3-(3,5-Dimethylisoxazol-4-yl)-5-[phenyl(tetrahydro-2H-pyran-4-yl)methyl]-5H-pyrrolo[2,3-b:4,5-b′]dipyridine-7-ol]
- IC50 (MV4-11 cells): < 10 nM
- IC50 (BRD4): < 2 nM

SMILES: Cc1noc(C)c1-c1cnc2c3ccc(C(N)=O)nc3n(C(c3ccccc3)C3CCOCC3)c2c1 (stereo not drawn) [Compound 50, 3-(3,5-Dimethylisoxazol-4-yl)-5-[phenyl(tetrahydro-2H-pyran-4-yl)methyl]-5H-pyrrolo [2,3-b:4,5-b′]dipyridine-7-carboxamide]
- IC50 (MV4-11 cells): < 10 nM
- IC50 (BRD4): < 2 nM

SMILES: Cc1noc(C)c1-c1cnc2c3ccc(N)nc3n(C(c3ccccc3)C3CCOCC3)c2c1 (stereo not drawn) [Compound 52, 3-(3,5-Dimethylisoxazol-4-yl)-5-[phenyl(tetrahydro-2H-pyran-4-yl)methyl]-5H-pyrrolo[2,3-b:4,5-b′]dipyridine-7-amine]
- IC50 (MV4-11 cells): < 10 nM
- IC50 (BRD4): < 2 nM

SMILES: CON(C)C(=O)c1ccc2c3ncc(-c4c(C)noc4C)cc3n(C(c3ccccc3)C3CCOCC3)c2n1 (stereo not drawn) [Compound 55, 3-(3,5-Dimethylisoxazol-4-yl)-N-methoxy-N-methyl-5-[phenyl(tetrahydro-2H-pyran-4-yl)methyl]-5H-pyrrolo[2,3-b:4,5-b′]dipyridine-7-carboxamide]
- IC50 (BRD4): < 2 nM

SMILES: CC(=O)c1ccc2c3ncc(-c4c(C)noc4C)cc3n(C(c3ccccc3)C3CCOCC3)c2n1 (stereo not drawn) [Compound 56, 1-{3-(3,5-Dimethylisoxazol-4-yl)-5-[phenyl(tetrahydro-2H-pyran-4-yl)methyl]-5H-pyrrolo[2,3-b:4,5-b′]dipyridin-7-yl}ethyl-1-one]
- IC50 (BRD4): < 2 nM

SMILES: Cc1noc(C)c1-c1cnc2c3ccc(C(C)O)nc3n(C(c3ccccc3)C3CCOCC3)c2c1 (stereo not drawn) [Compound 57, 1-{3-(3,5-Dimethylisoxazol-4-yl)-5-[phenyl(tetrahydro-2H-pyran-4-yl)methyl]-5H-pyrrolo[2,3-b:4,5-b′]dipyridin-7-yl}ethan-1-ol]
- IC50 (BRD4): < 2 nM

SMILES: Cc1noc(C)c1-c1cnc2c3ccc(C(C)(C)O)nc3n(C(c3ncccc3F)C3CCOCC3)c2c1 (stereo not drawn) [Compound 60]
- IC50 (BRD4): < 2 nM
